Reference: article PMC2701622 (Journal of immunology (Baltimore, Md. : 1950), 2009)
No end group written: not given here.

Target: HLA-B*2705 (Homo sapiens, UniProt P01889, D138H/D201E/E176V/E204Q/G107R/H137Y/K202T/N104T/N87E/Q56L/Q94K/R106L/R155S/R180L/S101D/S121N/S48T/Y140D/Y33H/Y91C)
Test: biochemical
Format: binding

| Molecule | IC50 |
| --- | --- |
| KRLAETLAL [KRLAETLAL, reference compound] | 165 nM |
| ARKLLLDNL [reference compound] | 74 nM |
| KRQQELLRL [Env573–581KL9] | 69 nM |
| SRLEILNVL | 80 nM |
| YRRWIQLGL [Gag263–271YL9] | 2.7 nM |
| CC(C)C[C@H](NC(=O)[C@H](CCCNC(=N)N)NC(=O)[C@H](CC(C)C)NC(=O)[C@H](C)NC(=O)[C@H](CCC(=O)O)NC(=O)[C@@H]1CCCN1C(=O)[C@H](Cc1ccccc1)NC(=O)[C@H](CCCNC(=N)N)NC(=O)[C@@H](N)CO)C(=O)O [reference compound] | 12 nM |
| RRDNRRGL [Vif172–179RL8] | 175 nM |
| SRHHAFCFR [reference compound] | 42 nM |
| IRILQRALF [Vpr62–70IF9] | 14 nM |
| TRYPTILQL | 97 nM |
| MRDHTITLL [reference compound] | 52 nM |
| RRRWQQLL [Rev44–51RL8] | 12 nM |
| RRQDILDLWI [reference compound] | 99 nM |
| RRISGVDRY [reference compound] | 21 nM |
| SRTPYHVNL | 22 nM |
| LRQGYRPVF [Env717–725LF9] | 52 nM |
| RRAIRGEQL [Vif123–131RL9] | 28 nM |
| SRYDPSISF | 254 nM |
| SRQFGFIVL | 128 nM |

| Molecule | IC50 |
| --- | --- |
| RRIRQGLEL [Env868–876RL9] | 13 nM |
| RRSKEITVR [reference compound] | 5.5 nM |
| EREQTLNQL [reference compound] | 2690 nM |
| NRFSVAYML [reference compound] | 9.8 nM |
| RRSRPSGDL [Nef8–16RL9] | 351 nM |
| RRYNIIPVL | 7.9 nM |
| RRPPLLPLLL | 100 nM |
| KRLRLIHLL [Rev12–20KL9] | 1.1 nM |
| CC(C)C[C@H](NC(=O)[C@H](CCC(=O)O)NC(=O)[C@@H](NC(=O)[C@H](CO)NC(=O)[C@H](CCCCN)NC(=O)[C@H](CCC(N)=O)NC(=O)[C@H](Cc1ccc(O)cc1)NC(=O)[C@H](CCCNC(=N)N)NC(=O)[C@@H](N)CCCNC(=N)N)[C@@H](C)O)C(=O)O [reference compound] | 6.2 nM |
| RRHRILDIYL [Nef137–146RL10] | 1.8 nM |
| ARAALQELL | 137 nM |
| NRAKQVIKL [reference compound] | 324 nM |
| RRSPFLQVF | 14 nM |
| SRLWPKIQGL | 17 nM |
| KRGVFVLGF [Env524–532KF9] | 13 nM |
| RRLTARGLL [Nef246–254RL9] | 9.9 nM |
| ARLFGIRAK [reference compound] | 133 nM |
| DRLALLANL [reference compound] | 181 nM |
